ChEMBL document CHEMBL2150934, “Identification of a potent and metabolically stable series of fluorinated diphenylpyridylethanamine-based cholesteryl ester transfer protein inhibitors” (Bioorg Med Chem Lett, 2012)

Columns and labels:
Assay type in all cases: ADME, organism-based
[1] = Plasma concentration in transgenic mouse expressing human CETP/apoB100 at 30 mg/kg, po at 8 hrs; set-up: dose 30 mg/kg, route oral
[2] = AUC (0 to 8 hrs) in transgenic mouse expressing human CETP/apoB100 at 30 mg/kg, po; set-up: time < 8 hr, dose 30 mg/kg, route oral; details: plasma
[3] = Plasma concentration in transgenic mouse expressing human CETP/apoB100 at 30 mg/kg, po at 2 hrs; set-up: dose 30 mg/kg, route oral
[4] = Plasma concentration in transgenic mouse expressing human CETP/apoB100 at 30 mg/kg, po at 4 hrs; set-up: dose 30 mg/kg, route oral

- concentration at 8 h [1]: 112 nM
- AUC(0-t) at 8 h [2]: 3.2 µM·h
- concentration at 2 h [3]: 1070 nM
- concentration at 4 h [4]: 249 nM
SMILES: O=C(N[C@@H]1CCC(F)(F)C1)N[C@@](Cc1ccccc1)(c1cc(F)cc(OC(F)(F)C(F)F)c1)c1ccc(Cl)cn1
